Like-named read-outs stand apart in the source and are kept apart here.
How the values were obtained:
Bax = experiment: Western blot assay, Bax; format: cell-based, human; conditions: PC-3 cells
Method: (§1) The expression of cell apoptosis-related proteins (Bax, Bcl-2, and cleaved caspase-9) after treatment of 4k and 5a was also measured by western blot assay.
(§2) PC-3 cells in logarithmic phase were harvested and seeded onto culture plates, and were cultured for 24 h. […] The proteins of PC-3 cells were extracted by RIPA buffer containing 1% PMSF (Beyotime Biotechnology, China). The protein concentration was measured by BCA Assay Kit (SEVEN Biotech, China). Equal amounts and concentration of protein were diluted in 5× loading buffer (Beyotime, China) and denatured by boiled for 5 min. Protein samples were separated on 12.5% SDS-PAGE gels (EpiZyme, China) and transferred to PVDF membranes (Millipore Corporation, Billerica, MA, USA). The membranes were blocked in QuickBlockTM Block Buffer (SEVEN Biotech, China) for 10 min at room temperature. Then the membranes were incubated with the primary antibodies overnight at 4 °C, including Cyclin B1 (1:2000, Proteintech, China), CDK1 (1:5000, Proteintech, China), BAX (1:5000, Proteintech, China), Bcl2 (1:1000, Proteintech, China), Caspase 9/p35/p10 (1:1000, Proteintech, China), and β-actin (1:20 000, Proteintech, China). […] The protein signals were detected by using chemiluminescent reagents kit (NCM Biotech, China) and visualised with ChemiDocImaging System (Tanon 5200, China). Protein expressions was quantified by using Fiji/ImageJ software.

Bcl-2 = experiment: Western blot assay, Bcl-2; format: cell-based, human; conditions: PC-3 cells
Method: as §1, §2

PC-3 cell line = experiment: MTT cell viability after 24 h; format: cell-based; conditions: Homo sapiens, read-out: cell viability
Method: An MTT assay was made on PC-3 cell line to test the cell viability after treated with different concentrations of compounds 4k and 5a after 24 h which was the same period as immunofluorescence assay.

HCT-116 cells = experiment: MTT antiproliferative assay, HCT-116; format: cell-based; conditions: Homo sapiens, 72 h drug exposure, read-out: IC50 (μM) ± SD HCT-116
Method: (§3) All cell lines tested in this study were purchased from the American Type Culture Collection (ATCC, Manassas, VA). SGC-7901 (human gastric adenocarcinoma), HCT-116 (human colon carcinoma), and A549 (human pulmonary carcinoma) cells were cultured in RPMI-1640 medium containing 10% foetal serum (FBS) and 1% penicillin-streptomycin solution (100×). MCF-7 (human breast carcinoma) cells were cultured in DMEM medium containing 10% foetal serum (FBS) and 1% penicillin-streptomycin solution (100×). PC-3 (human prostate carcinoma) cells were cultured in Ham’s F-12K medium containing 10% foetal serum (FBS) and 1% penicillin-streptomycin solution (100×). All cells were cultured at 37 °C in a humidified atmosphere containing 5% CO2.
(§4) Cells grown in logarithmic phase were harvested and seeded onto 96-well cell plates at a density of 4 ∼ 5 × 10^3 cells per well (various from cell type) and were cultured for 24 h. Different concentrations of compounds were added into the wells, and the cells were cultured for another 72 h. The medium was removed, then 20 μL of MTT (5 mg/mL in PBS) was added to each well and the cells were incubated for 4 h. 150 μL of DMSO was added to each well to dissolve the formazan, and the absorbance at 490 nm of each well was measured by a microplate reader. IC50 values were calculated by SPSS software.

PC-3 cells [1] = experiment: MTT antiproliferative assay, PC-3; format: cell-based; conditions: Homo sapiens, 72 h drug exposure, read-out: IC50 (μM) ± SD PC-3
Method: as §3, §4

MCF-7 cells = experiment: MTT antiproliferative assay, MCF-7; format: cell-based; conditions: Homo sapiens, read-out: IC50 (μM) ± SD MCF-7
Method: The in vitro antiproliferative activities of all target compounds 4a−k, 5a−h, and 6a−h were assayed by MTT method using human gastric cancer cell line SGC-7901 and human breast cancer cell line MCF-7.
as §3, §4

PC-3 cells [2] = experiment: Wound healing assay; format: cell-based, human; conditions: 24 h, control group 48.7%
Method: To investigate the effect of 4k and 5a on cell migration, wound healing assay was used on PC-3 cells.
PC-3 cells in logarithmic phase were harvested and seeded onto 12-well cell plates at a density of 2.5 × 10^5 cells per well, and were cultured for 24 h. Scratches were made in confluent monolayers using 200 μL pipette tip, and the cells were washing twice with PBS to remove all the non-adherent cells. […] Images of wounds were taken at 0 h and 24 h and analysed by Fiji/ImageJ software.

[3] = test system: cyclin-dependent kinase 1 (CDK1); experiment: Western blot assay, CDK1; format: cell-based, human; conditions: PC-3 cells, at the concentrations of 40 and 20 nM
Method: Additionally, western blot assay was employed to measure the expression level of cell cycle-related proteins cyclin-dependent kinase 1 (CDK1) and Cyclin B1.
as §2

PC-3 cells [4] = experiment: Cell apoptosis analysis, Annexin V-FITC/PI flow cytometry; format: cell-based, human; conditions: 48 h
Method: To investigate the effect of 4k and 5a on cell apoptosis, flow cytometry was used to analyse the cell apoptosis of PC-3 cells. […] Early apoptosis cells could only be stained by Annexin V-FITC, while late apoptosis cells could be stained by both Annexin V-FITC and PI.
PC-3 cells in logarithmic phase were harvested and seeded onto 6-well cell plates at a density of 2.5 × 10^5 cells per well, and were cultured for 24 h. […] The cells were digested using trypsin and were harvested, washed twice with PBS, and resuspended in 500 μL binding buffer, followed by the addition of 100 μL of the cell suspension to 5 μL of Annexin V-FITC and 5 μL of PI. After stained for 15 min in a dark at room temperature, the samples were added 400 μL of binding buffer and detected by FACScan flow cytometry (BectoneDickinson, Franklin Lakes, NJ, USA).

cleaved caspase-9 = experiment: Western blot assay, cleaved caspase-9; format: cell-based, human; conditions: PC-3 cells, dose-dependent manner
Method: as §1, §2

PC-3 cells [5] = experiment: Colony formation assay; format: cell-based, human; conditions: PC-3, 20 nM, 24 h treatment then one week culture
Excerpt: Colony formation assay was selected to assess the effect of 4k and 5a on clonogenic formation of PC-3 cells.
PC-3 cells in logarithmic phase were harvested and seeded onto 12-well cell plates at a density of 1 × 10^3 cells per well. […] Then the medium was removed, and cells were washed with PBS and added fresh medium containing 10% FBS. The cells were continued to culture for one week. The medium was removed, and the cells were fixed with 4% paraformaldehyde and subsequently stained with crystal violet solution. Images were taken and analysed by Fiji/ImageJ software.

Row | SMILES | IC50 (HCT-116 cells) [µM] | IC50 (PC-3 cells [1]) [µM] | recover percentage of scratches (PC-3 cells [2]; PC-3, 10 nM) [%] | recover percentage of scratches (PC-3 cells [2]; PC-3, 20 nM) [%] | level of CDK1 [3] | level of cleaved caspase-9 (cleaved caspase-9) | colony formation compared to control (PC-3 cells [5]) [%] | also measured
1 | COc1cc(C(=O)c2nn(-c3ccc(N)cc3)cc2N)cc(OC)c1OC [4k, (4-amino-1–(4-aminophenyl)-1H-pyrazol-3-yl)(3,4,5-trimethoxyphenyl)methanone] | 0.01 ± 0.001 | 0.015 ± 0.004 | 42.7 | 20.2 | increase | increase | 5.7 | expression of Bax (Bax; western blot, 20, 40 nM): significantly increased; expression of Bcl-2 (Bcl-2; western blot, 10, 20, 40 nM): significantly decreased; viability at 0.00051 µM (PC-3 cell line; PC-3, MTT, 24 h, 0.51 nM): 91.6%; viability at 1.111 µM (PC-3 cell line; PC-3, MTT, 24 h, 1111 nM): 41.6%; IC50 (MCF-7 cells; MCF7, 72 h drug exposure, MTT assay): 0.031 ± 0.005 µM; percentage of apoptosis cells (PC-3 cells [4]; PC-3, 10 nM, vehicle 18.3%): 27.1%; percentage of apoptosis cells (PC-3 cells [4]; PC-3, 25 nM, vehicle 18.3%): 34.1%
2 | COc1cc(C2=NCC(=O)Nc3cn(-c4ccccc4)nc32)cc(OC)c1OC [5a, 2-Phenyl-8–(3,4,5-trimethoxyphenyl)-2,6-dihydropyrazolo[4,3-e][1,4]diazepin-5(4H)-one] | 0.163 ± 0.038 | 0.006 ± 0.002 | 32.3 | 23.3 | increase | increase | 34.9 | expression of Bax (Bax; western blot, 10, 20, 40 nM): significantly increased; expression of Bcl-2 (Bcl-2; western blot, 5, 20, 40 nM): significantly decreased; viability at 0.00051 µM (PC-3 cell line; PC-3, 24 h): 76.6%; viability at 1.111 µM (PC-3 cell line; PC-3, 24 h): 39.6%; IC50 (MCF-7 cells; MCF7, 72 h): 1.78 ± 0.617 µM; percentage of apoptosis cells (PC-3 cells [4]; PC-3, 100 nM, vehicle 18.2%): 26.6%; percentage of apoptosis cells (PC-3 cells [4]; PC-3, 200 nM, vehicle 18.2%): 41.5%
